Drawing on ChEMBL document CHEMBL5550178, “Synthesis and anticancer properties of novel dolastatin 10 analogs featuring five-membered heterocyclic rings with a linkable group at the C-terminus” (Bioorg Med Chem, 2024), this text covers Activity and Drug uptake for 2 molecules.

Structures are written as SMILES. Non-standard residues stand in square brackets, D forms with d. Residues, ends and D or L forms follow the SMILES beside them. Dolaproine = CO[C@@H]([C@@H]1CCCN1)[C@@H](C)C(=O)O; Dil = CC[C@H](C)[C@H](NC)[C@@H](CC(=O)O)OC; NMeV = CN[C@H](C(=O)O)C(C)C

Data set [1] has as its system PC-3. In words: Induction of cell cycle arrest in human PC-3 cells assessed as accumulation of cells at S phase at 1000 nM measured after 8 days by PI staining based flow cytometry analysis (reference value: 12.9%). The format is functional. The note with it: time 8 day.
The test system of data set [2] is PC-3. In words: Induction of cell cycle arrest in human PC-3 cells assessed as accumulation of cells at G1/G0 phase at 1 nM measured after 6 days by PI staining based flow cytometry analysis (reference value: 79.8%). The format is functional. The note with it: time 6 day.
Data set [3] concerns PC-3. The data set is described as follows: Induction of cell cycle arrest in human PC-3 cells assessed as accumulation of cells at G2/M phase at 1 nM measured after 4 days by PI staining based flow cytometry analysis (reference value: 10.7%). Format: functional. The note with it: time 4 day. For orientation: Flow cytometry measures light scatter and fluorescence of single cells or particles in a stream.

Data set [4] has as its system PC-3. In words: Induction of cell cycle arrest in human PC-3 cells assessed as accumulation of cells at S phase at 1000 nM measured after 6 days by PI staining based flow cytometry analysis (reference value: 8.60%). The format is functional. The note with it: time 6 day.
Data set [5] concerns PC-3. In words: Induction of cell cycle arrest in human PC-3 cells assessed as accumulation of cells at G1/G0 phase at 1 nM measured after 4 days by PI staining based flow cytometry analysis (reference value: 67.6%). The format is functional. To be noted: time 4 day.
Data set [6] has as its system PC-3. The data set is described as follows: Induction of cell cycle arrest in human PC-3 cells assessed as accumulation of cells at S phase at 1 nM measured after 8 days by PI staining based flow cytometry analysis (reference value: 12.9%). The format is functional. To be noted: time 8 day.
Data set [7] has as its system PC-3. The data set is described as follows: Induction of cell cycle arrest in human PC-3 cells assessed as accumulation of cells at S phase at 50 nM measured after 6 days by PI staining based flow cytometry analysis (reference value: 8.60%). Format: functional. To be noted: time 6 day.
For data set [8], the system named is PC-3. In words: Induction of cell cycle arrest in human PC-3 cells assessed as accumulation of cells at G2/M phase at 50 nM measured after 8 days by PI staining based flow cytometry analysis (reference value: 13.9%). The format is functional. The note with it: time 8 day.
The subject of data set [9] is PC-3. The data set is described as follows: Induction of cell cycle arrest in human PC-3 cells assessed as accumulation of cells at G2/M phase at 50 nM measured after 4 days by PI staining based flow cytometry analysis (reference value: 10.7%). The format is functional. The note with it: time 4 day.
The subject of data set [10] is PC-3. The data set is described as follows: Induction of cell cycle arrest in human PC-3 cells assessed as accumulation of cells at G1/G0 phase at 50 nM measured after 8 days by PI staining based flow cytometry analysis (reference value: 73.2%). The format is functional. To be noted: time 8 day.
Data set [11] concerns PC-3. The data set is described as follows: Induction of cell cycle arrest in human PC-3 cells assessed as accumulation of cells at G1/G0 phase at 1000 nM measured after 4 days by PI staining based flow cytometry analysis (reference value: 67.6%). To be noted: time 4 day. Format: functional.
Data set [12] deals with PC-3. The data set is described as follows: Induction of cell cycle arrest in human PC-3 cells assessed as accumulation of cells at G2/M phase at 1 nM measured after 8 days by PI staining based flow cytometry analysis (reference value: 13.9%). Format: functional. The note with it: time 8 day.
Data set [13] has as its system PC-3. In words: Induction of cell cycle arrest in human PC-3 cells assessed as accumulation of cells at S phase at 50 nM measured after 8 days by PI staining based flow cytometry analysis (reference value: 12.9%). The format is functional. The note with it: time 8 day.
Data set [14] relates to PC-3. The data set is described as follows: Induction of cell cycle arrest in human PC-3 cells assessed as accumulation of cells at G1/G0 phase at 1000 nM measured after 6 days by PI staining based flow cytometry analysis (reference value: 79.8%). The format is functional. To be noted: time 6 day.
The subject of data set [15] is PC-3. In words: Induction of cell cycle arrest in human PC-3 cells assessed as accumulation of cells at G1/G0 phase at 50 nM measured after 4 days by PI staining based flow cytometry analysis (reference value: 67.6%). Format: functional. To be noted: time 4 day.
Data set [16] deals with PC-3. In words: Induction of cell cycle arrest in human PC-3 cells assessed as accumulation of cells at G1/G0 phase at 1000 nM measured after 8 days by PI staining based flow cytometry analysis (reference value: 73.2%). The format is functional. The note with it: time 8 day.
The subject of data set [17] is PC-3. The data set is described as follows: Induction of cell cycle arrest in human PC-3 cells assessed as accumulation of cells at G2/M phase at 1000 nM measured after 4 days by PI staining based flow cytometry analysis (reference value: 10.7%). The format is functional. To be noted: time 4 day.
Data set [18] relates to PC-3. The data set is described as follows: Induction of cell cycle arrest in human PC-3 cells assessed as accumulation of cells at G2/M phase at 1000 nM measured after 6 days by PI staining based flow cytometry analysis (reference value: 9.96%). Format: functional. The note with it: time 6 day.
Data set [19] concerns PC-3. The data set is described as follows: Induction of cell cycle arrest in human PC-3 cells assessed as accumulation of cells at G1/G0 phase at 50 nM measured after 6 days by PI staining based flow cytometry analysis (reference value: 79.8%). The note with it: time 6 day. The format is functional.
The subject of data set [20] is PC-3. The data set is described as follows: Induction of cell cycle arrest in human PC-3 cells assessed as accumulation of cells at G2/M phase at 1 nM measured after 6 days by PI staining based flow cytometry analysis (reference value: 9.96%). The format is functional. To be noted: time 6 day.
The subject of data set [21] is PC-3. In words: Induction of cell cycle arrest in human PC-3 cells assessed as accumulation of cells at G2/M phase at 1000 nM measured after 8 days by PI staining based flow cytometry analysis (reference value: 13.9%). Format: functional. To be noted: time 8 day.
In data set [22] the test system is PC-3. The data set is described as follows: Induction of cell cycle arrest in human PC-3 cells assessed as accumulation of cells at S phase at 1 nM measured after 4 days by PI staining based flow cytometry analysis (reference value: 17.9%). To be noted: time 4 day. Format: functional.
Data set [23] deals with PC-3. The data set is described as follows: Induction of cell cycle arrest in human PC-3 cells assessed as accumulation of cells at G1/G0 phase at 1 nM measured after 8 days by PI staining based flow cytometry analysis (reference value: 73.2%). To be noted: time 8 day. Format: functional.
Data set [24] concerns PC-3. The data set is described as follows: Induction of cell cycle arrest in human PC-3 cells assessed as accumulation of cells at G2/M phase at 50 nM measured after 6 days by PI staining based flow cytometry analysis (reference value: 9.96%). The format is functional. To be noted: time 6 day.
Data set [25] concerns PC-3. In words: Induction of cell cycle arrest in human PC-3 cells assessed as accumulation of cells at S phase at 50 nM measured after 4 days by PI staining based flow cytometry analysis (reference value: 17.9%). Format: functional. The note with it: time 4 day.
Data set [26] concerns PC-3. In words: Induction of cell cycle arrest in human PC-3 cells assessed as accumulation of cells at S phase at 1 nM measured after 6 days by PI staining based flow cytometry analysis (reference value: 8.60%). The format is functional. The note with it: time 6 day.
The test system of data set [27] is PC-3. In words: Induction of cell cycle arrest in human PC-3 cells assessed as accumulation of cells at S phase at 1000 nM measured after 4 days by PI staining based flow cytometry analysis (reference value: 17.9%). To be noted: time 4 day. The format is functional.
The nature of data set [28]: Drug uptake in human PC-3 cells assessed as increase in fluorescence intensity at upto 1000 nM by Hoechst nuclear dye based fluorescent microscopic analysis. The format is ADME, cell-based. The note with it: pc-3, 1 µM.

Take `CC[C@H](C)[C@@H]([C@@H](CC(=O)N1CCC[C@H]1[C@H](OC)[C@@H](C)C(=O)N[C@@H](Cc1ccccc1)C(=O)O)OC)N(C)C(=O)[C@@H](NC(=O)[C@@H](NC)C(C)C)C(C)C` (H-[NMeV]V[Dil][Dolaproine]F-OH): the Activity in data set [1] is given as 60.7%; in [2], 75.5%; in data set [3], 7.89%; in data set [4] it was 47.6%; in [5], 68.9%; in [6] it was 19%. Moreover, the Activity was 20.2% in data set [7]; 18.4% in data set [8]; 8.23% in data set [9]; 50.8% in [10]; 44.7% in data set [11]; 17.2% in data set [12]. The Activity is recorded as 32% in [13]; 44.7% in data set [14]; 58.5% in data set [15]; 27.5% in [16]; 3.87% in data set [17]; 3.87% in [18]. The Activity in data set [19] was found to be 70.6%; in data set [20], 10.6%; in data set [21], 12.6%; in data set [22] it was 20.8%; in data set [23] it was 65.8%; in data set [24], 5.39%. The Activity in [25] amounted to 30.1%; in [26], 11.8%; in data set [27], 47.6%.
As for `CC[C@H](C)[C@@H]([C@@H](CC(=O)N1CCC[C@H]1[C@H](OC)[C@@H](C)C(=O)N[C@@H](Cc1ccccc1)c1nc(CNC(=O)CCC(=O)N2CCN(C(=O)c3ccccc3-c3c4ccc(=[N+](CC)CC)cc-4oc4cc(N(CC)CC)ccc34)CC2)cs1)OC)N(C)C(=O)[C@@H](NC(=O)[C@H](C(C)C)N(C)C)C(C)C` (stereo in doubt), in data set [28], the Drug uptake entry is on record as “Active”.
